{"source": "paper PMC4208661", "about": "“SGLT2 inhibitors act from the extracellular surface of the cell membrane” (Physiological Reports, 2014)", "key": {"hSGLT2 over hSGLT1": {"test_system": "hSGLT2 over hSGLT1", "design": "method as in Nomura et al. [2010]", "details": "from IC50; ref Nomura et al. [2010]; cited from earlier work"}, "[1]": {"design": "method as in Koga et al. [2013]", "details": "ref Koga et al. [2013]; cited from earlier work"}, "hSGLT1 [2]": {"target": "T1, hSGLT1 (Homo sapiens, UniProt P13866)", "T1 sequence (P13866 1-664)": "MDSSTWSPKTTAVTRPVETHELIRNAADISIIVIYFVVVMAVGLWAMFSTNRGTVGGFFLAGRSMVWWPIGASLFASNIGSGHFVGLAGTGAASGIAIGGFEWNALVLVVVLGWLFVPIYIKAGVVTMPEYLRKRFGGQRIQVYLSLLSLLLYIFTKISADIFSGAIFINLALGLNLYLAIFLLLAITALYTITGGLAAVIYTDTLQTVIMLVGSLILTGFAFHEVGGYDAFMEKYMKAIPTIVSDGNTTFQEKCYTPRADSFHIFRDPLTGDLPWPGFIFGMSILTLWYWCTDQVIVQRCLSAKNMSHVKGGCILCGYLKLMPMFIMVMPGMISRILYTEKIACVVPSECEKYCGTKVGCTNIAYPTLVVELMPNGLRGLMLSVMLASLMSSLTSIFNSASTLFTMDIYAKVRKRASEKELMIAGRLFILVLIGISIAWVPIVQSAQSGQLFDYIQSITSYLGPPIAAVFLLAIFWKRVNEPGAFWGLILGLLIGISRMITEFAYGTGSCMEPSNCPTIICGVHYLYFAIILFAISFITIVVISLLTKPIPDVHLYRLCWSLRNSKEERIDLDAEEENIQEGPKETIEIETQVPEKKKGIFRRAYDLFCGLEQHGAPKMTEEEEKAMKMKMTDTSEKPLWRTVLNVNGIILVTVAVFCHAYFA", "details": "300 nmol/L TA-3404, 50 μmol/L α-MDG, HEK-293T, 37°C", "quoted_text": "In brief, cells were incubated for 30 min in 50 μmol/L [^14C]‐α‐Methyl‐D‐glucopyranoside (GE HealthCare Life Sciences, Piscataway, NJ), a specific substrate for SGLTs, and washed in cold Choline buffer three times. The cells were solubilized and a sample was assayed using scintillation counting. Uptake was normalized to total cellular protein. For each tested condition, the sample size was n = 3–4 wells and each experiment was repeated at least twice."}, "hSGLT2 [3]": {"target": "T2, hSGLT2 (Homo sapiens, UniProt P31639)", "T2 sequence (P31639 1-672)": "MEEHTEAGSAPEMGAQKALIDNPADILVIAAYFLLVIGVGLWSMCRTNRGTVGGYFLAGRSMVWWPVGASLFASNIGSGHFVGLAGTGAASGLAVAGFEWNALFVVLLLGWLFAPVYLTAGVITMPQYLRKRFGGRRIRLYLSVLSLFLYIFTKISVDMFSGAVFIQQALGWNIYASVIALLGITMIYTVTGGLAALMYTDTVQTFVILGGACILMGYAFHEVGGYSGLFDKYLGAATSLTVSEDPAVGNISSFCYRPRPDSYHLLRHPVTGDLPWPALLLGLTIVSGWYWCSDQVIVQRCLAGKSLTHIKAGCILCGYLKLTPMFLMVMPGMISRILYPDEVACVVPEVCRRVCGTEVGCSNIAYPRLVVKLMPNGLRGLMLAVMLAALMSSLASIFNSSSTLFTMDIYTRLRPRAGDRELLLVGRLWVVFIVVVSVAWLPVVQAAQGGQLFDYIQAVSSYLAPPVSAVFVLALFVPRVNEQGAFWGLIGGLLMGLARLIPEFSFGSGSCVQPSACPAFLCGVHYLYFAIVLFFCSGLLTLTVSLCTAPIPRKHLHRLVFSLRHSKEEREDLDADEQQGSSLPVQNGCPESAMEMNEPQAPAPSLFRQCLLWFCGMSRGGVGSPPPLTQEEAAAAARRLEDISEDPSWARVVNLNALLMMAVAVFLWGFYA", "experiment": "[14C]-αMDG uptake in HEK-293T cells expressing hSGLT2", "type": "cell-based", "design": "transfected with 1 μg of the vector containing the hSGLT2 or hSGLT1 coding region; expressed in transfected cells; host or cells: HEK-293T", "protocol": "Uptake was normalized to total cellular protein.\nWe decided to use two different approaches due to the fact that hSGLT2 has low expression, yielding small glucose‐induced currents. For radiotracer uptake experiments, tracer entry in the cell is measured over the period of 30 min leading to a higher sensitivity of the method."}, "hSGLT1 [4]": {"target": "T1, hSGLT1", "experiment": "Whole-cell patch clamp, inward glucose current with inhibitor in the intracellular (pipette) solution, hSGLT1", "type": "cell-based", "design": "transfected with 1 μg of the vector containing the hSGLT2 or hSGLT1 coding region; expressed in transfected cells; host or cells: HEK-293T", "text": "(§1) The intracellular NaCl concentration was maintained at either 5 or 150 mmol/L using CsCl to replace NaCl (Fig. 5A and B)."}, "hSGLT2 [5]": {"target": "T2, hSGLT2", "experiment": "Whole-cell patch clamp, glucose-induced current, extracellular inhibitor, HEK-293T cells expressing hSGLT2", "type": "cell-based", "design": "transfected with 1 μg of the vector containing the hSGLT2 or hSGLT1 coding region; expressed in transfected cells; host or cells: HEK-293T"}, "hSGLT2 [6]": {"target": "T2, hSGLT2", "experiment": "Whole-cell patch clamp, inward glucose current with inhibitor in the intracellular (pipette) solution, hSGLT2", "type": "cell-based", "design": "transfected with 1 μg of the vector containing the hSGLT2 or hSGLT1 coding region; expressed in transfected cells; host or cells: HEK-293T", "text": "as §1"}, "hSGLT2 [7]": {"target": "T2, hSGLT2", "design": "method as in Koga et al. [2013]", "details": "ref Koga et al. [2013], cited from earlier work"}, "hSGLT1 [8]": {"target": "T1, hSGLT1", "experiment": "Whole-cell patch clamp, glucose-induced current, extracellular inhibitor, HEK-293T cells expressing hSGLT1", "quoted_text": "In brief, 2 days after transfection cells were plated on 12‐mm poly‐L‐lysine‐coated glass coverslips and selected on the basis of fluorescence intensity using a Nikon diaphot epifluorescence microscope (Nikon, Tokyo, Japan). During the experiment cells were kept at the holding potential Vh = −60 mV. […] Currents were filtered at 2 kHz and digitized at 1 kHz.\nGlucose currents (IGlu) were obtained by subtracting the baseline current recorded in Na^+ buffer to the total current measured in Na^+ buffer + glucose: [drawing 1]\nThe inhibition constant (IC50) was determined by measuring the sugar‐dependent steady‐state current or radiotracer uptake as a function of external inhibitor concentration.\nThe D‐glucose‐coupled current recovery follows an exponential time course with time constant 1/koff and half‐time for recovery (t1/2,off) related to the off rate: [drawing 3]\nThe ON rate (kon) is calculated from the empirically measured Ki values and koff values: [drawing 4]\nTo calculate the dissociation constant (koff) we measured the recovery time of SGLT glucose‐induced current when the inhibitor is rapidly removed from the extracellular solution."}, "hSGLT2 [9]": {"target": "T2, hSGLT2", "design": "transfected with 1 μg of the vector containing the hSGLT2 or hSGLT1 coding region; expressed in transfected cells; host or cells: HEK-293T", "details": "ref Hummel et al. [2011], cited from earlier work"}, "[10]": {"details": "after 24 h, single clinical oral dose; ref Hummel et al. [2012]; cited from earlier work"}, "[11]": {"test_system": "renal glucose reabsorption", "details": "cited from earlier work"}, "[12]": {"details": "physiological conditions, HEK293T cells"}, "[13]": {"details": "ref Chasis et al. [1933], Silverman [1974]"}}, "note": "Read-outs that look alike come from different tables or passages of the source."}
{"smiles": "Cc1ccc([C@@H]2O[C@H](CO)[C@@H](O)[C@H](O)[C@H]2O)cc1Cc1ccc(-c2ccc(F)cc2)s1", "note": "[Canagliflozin, canagliflozin]", "values": [{"measurement": "selectivity for hSGLT2 over hSGLT1", "setting": "hSGLT2 over hSGLT1", "result": 414, "unit": "fold"}]}
{"smiles": "OC[C@H]1O[C@@H](c2ccc(Cl)c(Cc3ccc(-c4ccc(F)nc4)s3)c2)[C@H](O)[C@@H](O)[C@@H]1O", "note": "[TA‐3404]", "values": [{"measurement": "pharmacokinetic profiles", "setting": "[1]", "result": "favorable pharmacokinetic profiles"}, {"measurement": "urine glucose excretion", "setting": "[1]", "result": "increased urine glucose excretion"}, {"measurement": "inhibition of hSGLT1 uptake", "setting": "hSGLT1 [2]", "result": 10, "unit": "%"}, {"measurement": "inhibition of hSGLT2 sugar uptake", "setting": "hSGLT2 [3]; 2 nmol/L TA-3404, 50 μmol/L α-MDG, HEK-293T, 37°C", "result": 50, "unit": "%"}, {"measurement": "IC50", "setting": "hSGLT2 [3]; 50 μmol/L [14C]-αMDG, 1-500 nmol/L extracellular TA-3404, HEK-293T, read-out: IC50, [14C]-αMDG uptake, hSGLT2", "result": "3.9 ± 2.2", "unit": "nM"}, {"measurement": "affinity of hSGLT2 higher than for hSGLT1", "setting": "hSGLT2 [3]; HEK-293T", "result": "about 75 fold"}, {"measurement": "IC50", "setting": "hSGLT2 [3]; as stated in the abstract, read-out: IC50, extracellular inhibition of glucose inward SGLT2 transport", "result": 2, "unit": "nM"}, {"measurement": "Ki", "setting": "hSGLT2 [3]; from IC50 (IC50 is twice the Ki), extracellular", "result": "~2", "unit": "nM"}, {"measurement": "effect on inward hSGLT1 Na+/glucose current", "setting": "hSGLT1 [4]; 200 nmol/L TA-3404 intracellular, 5 mmol/L NaCl in the pipette, 10 mmol/L glucose", "result": "no effect"}, {"measurement": "effect on hSGLT1 glucose-induced current", "setting": "hSGLT1 [4]; 200 nmol/L TA-3404 intracellular, 150 mmol/L Na+ in the pipette", "result": "did not detect any significant effect"}, {"measurement": "inhibition of Na+/glucose currents generated by hSGLT1, inhibitor in the cytoplasm", "setting": "hSGLT1 [4]; [12]", "result": "does not inhibit"}, {"measurement": "inhibition of glucose-induced inward current, hSGLT2", "setting": "hSGLT2 [5]; 300 nmol/L extracellular TA-3404, 100 mmol/L glucose, -60 mV, 37°C", "result": "completely inhibited"}, {"measurement": "half-time of recovery of hSGLT2 current (t1/2,off)", "setting": "hSGLT2 [5]; after removal of inhibitor, reversible ~50% component, n = 3", "result": "17 ± 0.5", "unit": "s"}, {"measurement": "kon, hSGLT2", "setting": "hSGLT2 [5]; calculated from Ki and koff", "result": "1.4 × 10^6 mol/L per sec"}, {"measurement": "recovery of hSGLT2 current after removing the inhibitor", "setting": "hSGLT2 [5]; washout, no further recovery over 5 min", "result": "~ 50%"}, {"measurement": "inhibition of inward hSGLT2 Na+/glucose current", "setting": "hSGLT2 [6]; 200 nmol/L TA-3404 intracellular, 5 mmol/L intracellular Na+, 100 mmol/L glucose, -60 mV", "result": "did not inhibit"}, {"measurement": "inhibition of inward hSGLT2 glucose current", "setting": "hSGLT2 [6]; 200 nmol/L TA-3404 intracellular, 150 mmol/L intracellular Na+", "result": "no significant inhibition"}, {"measurement": "intracellular affinity of hSGLT2 lower than the extracellular affinity", "setting": "hSGLT2 [6]; intracellular versus extracellular", "result": "at least 100"}, {"measurement": "inhibition of SGLT2 from the intracellular compartment", "setting": "hSGLT2 [6]; low (5 mmol/L) and high (150 mmol/L) intracellular NaCl", "result": "ineffective"}, {"measurement": "inhibition of Na+/glucose currents generated by hSGLT2, inhibitor in the cytoplasm", "setting": "hSGLT2 [6]; [12]", "result": "does not inhibit"}, {"measurement": "IC50", "setting": "hSGLT2 [7]; CHOK1 cells overexpressing hSGLT2, read-out: IC50, Na+-dependent 14C-α-MDG uptake, SGLT2", "result": 2, "unit": "nM"}, {"measurement": "selectivity for SGLT2 vs. SGLT1", "setting": "hSGLT2 [7]; CHOK1 cells, ratio of IC50", "result": "~ 350 fold"}, {"measurement": "IC50", "setting": "hSGLT1 [8]", "result": "300 ± 61", "unit": "nM"}, {"measurement": "Ki", "setting": "hSGLT1 [8]", "result": 150, "unit": "nM"}, {"measurement": "half-time of recovery of hSGLT1 current (t1/2,off)", "setting": "hSGLT1 [8]; after removal of inhibitor, n = 5", "result": "5.4 ± 0.4", "unit": "s"}, {"measurement": "koff, hSGLT1", "setting": "hSGLT1 [8]; from half-time of current recovery", "result": 0.2, "unit": "per sec"}]}
{"smiles": "CCOc1ccc(Cc2cc([C@@H]3O[C@H](CO)[C@@H](O)[C@H](O)[C@H]3O)ccc2Cl)cc1", "note": "[dapagliflozin]", "values": [{"measurement": "Off rate of binding to hSGLT2", "setting": "hSGLT2 [9]", "result": "very slow Off rate"}, {"measurement": "free plasma concentration", "setting": "[10]", "result": 25, "unit": "nM"}]}
{"smiles": "O=C(CCc1ccc(O)cc1)c1c(O)cc(O)cc1O[C@@H]1O[C@H](CO)[C@@H](O)[C@H](O)[C@H]1O", "note": "[phlorizin]", "values": [{"measurement": "effect on sugar uptake by hSGLT2", "setting": "hSGLT2 [3]; 100 μmol/L phlorizin, 50 μmol/L α-MDG, HEK-293T", "result": "to the level observed in untransfected cells"}, {"measurement": "glomerular filtration", "setting": "[11]; [13]", "result": "freely filtered"}, {"measurement": "glucose reabsorption", "setting": "[11]; [13]", "result": "completely blocks glucose reabsorption"}, {"measurement": "route of excretion", "setting": "[11]; ref Silverman [1974]", "result": "mainly excreted into the urine"}, {"measurement": "Off rate, hSGLT2", "setting": "hSGLT2 [9]; phlorizin", "result": 0.3, "unit": "per sec"}, {"measurement": "half-time of recovery of hSGLT2 current (t1/2,off)", "setting": "hSGLT2 [9]", "result": 24, "unit": "s"}]}
